Source: US20250213505A1, “DEVICES AND METHODS FOR DELIVERING SYNERGISTIC ACTIVE AGENTS TO TARGET SITES” (priority 2023, published 2025)
Read-outs that look alike come from different tables or passages of the source.

Legend:
Format in all cases: cell-based
E. coli (ATCC BAA 1427) [1] = assay: Minimum inhibitory concentration / growth inhibition, serial 2-fold dilution
Method: (§1) The minimal inhibitory concentration (MIC, the minimum inhibitory concentration required for 90% growth reduction) of benzalkonium chloride was determined against S. aureus (ATCC 6538), P. aeruginosa (ATCC 15442), and E. coli (ATCC BAA 1427) by serial 2-fold dilution experiments. A solution of chlorhexidine (0.025% w/w) was used as a positive control and comparator.

[2] = tested on: P. aeruginosa (ATCC 15442); assay: as above
Method: as §1

S. aureus (ATCC 6538) [3] = assay: as above
Method: as §1

E. coli = assay: Chequerboard assay, FIC and synergy analysis; settings: for MIC: Escherichia coli
Method: (§2) Chlorhexidine gluconate (CHG) and benzalkonium chloride (BZK) were analyzed by chequerboard assay with each test organism to determine potential additive, synergistic, antagonistic activity. The test organisms S. aureus, P. aeruginosa, and E. coli were tested at ranges of chlorhexidine gluconate (0.122-15.625 μg/mL, 1.25-160 μg/mL, and […], respectively) and benzalkonium chloride (0.029-3.75 μg/mL, 0.4688-60 μg/mL, and 0.2344-30 μg/mL, respectively). The results of the chequerboard experiment are shown in Table X. FIC was calculated by the following Equation 2: […]

S. aureus = assay: Chequerboard assay, FIC and synergy analysis; settings: for MIC: Staphylococcus aureus
Method: as §2

P. aeruginosa = assay: Chequerboard assay, FIC and synergy analysis; settings: for MIC: Pseudomonas aeruginosa
Method: as §2

E. coli (ATCC BAA 1427) [4] = assay: Minimal bactericidal concentration, serial 2-fold dilution
Method: (§3) The minimal bactericidal concentration (MBC) of benzalkonium chloride was determined against S. aureus (ATCC 6538), P. aeruginosa (ATCC 15442), and E. coli (ATCC BAA 1427) by serial 2-fold dilution experiments. A solution of chlorhexidine (0.025% w/w) was used as a positive control and comparator.

[5] = tested on: P. aeruginosa (ATCC 15442); assay: as above
Method: as §3

S. aureus (ATCC 6538) [6] = assay: as above
Method: as §3

[7] = read-out: MIC of CHG in Presence of BZK
[8] = concentration 250 μg/mL (0.025% w/w), positive control
[9] = concentration 250 μg/mL (0.025% w/w), positive control, listed as chlorhexidine
[10] = concentration 250 μg/mL, positive control
[11] = concentration 0.46875 μg/mL, triplicate
[12] = concentration 0.9375 μg/mL, triplicate
[13] = concentration 1.875 μg/mL, triplicate
[14] = concentration 3.75 μg/mL, triplicate
[15] = concentration 7.5 μg/mL, triplicate
[16] = concentration 15 μg/mL, triplicate
[17] = concentration 30 μg/mL, triplicate
[18] = concentration 60 μg/mL, triplicate
[19] = serial 2-fold dilution, triplicate
[20] = concentration 0.46875 μg/mL, average of triplicate
[21] = concentration 0.9375 μg/mL, average of triplicate
[22] = concentration 1.875 μg/mL, average of triplicate
[23] = concentration 3.75 μg/mL, average of triplicate
[24] = concentration 7.5 μg/mL, average of triplicate
[25] = concentration 15 μg/mL, average of triplicate
[26] = concentration 30 μg/mL, average of triplicate
[27] = concentration 60 μg/mL, average of triplicate

Compound: N=C(NCCCCCCNC(=N)NC(=N)Nc1ccc(Cl)cc1)NC(=N)Nc1ccc(Cl)cc1 [Chlorhexidine gluconate, 1-[amino-[6-[amino-[amino-(4-chlorophenyl)amino-methylidene]amino-methylidene]aminohexylimino]methyl]imino-N-(4-chlorophenyl)-methanediamine; (2R,3S,4R,5R)-2,3,4,5,6-pentahydroxyhexanoic acid.]
- inhibition at 250 µg/mL (E. coli (ATCC BAA 1427) [1]; Escherichia coli, BAA1427, concentration 250 μg/mL (0.025% w/w), positive control): 63%
- inhibition at 250 µg/mL ([2]; Pseudomonas aeruginosa, ATCC15442, read-out: Average Growth Inhibition (%)): 81%
- inhibition at 250 µg/mL (S. aureus (ATCC 6538) [3]; Staphylococcus aureus, ATCC6538, read-out: Average Growth Inhibition (%)): 121%
- MIC (E. coli; read-out: MIC of CHG Alone): 8 µg/mL
- MIC (E. coli; [7]): 4 µg/mL
- MIC (S. aureus; read-out: MIC of CHG Alone): 1.95 µg/mL
- MIC (S. aureus; [7]): 0.977 µg/mL
- MIC (P. aeruginosa; read-out: MIC of CHG Alone (μg/mL)): 40 µg/mL
- MIC (P. aeruginosa; read-out: MIC of CHG in Presence of BZK (μg/mL)): 2.5 µg/mL
- Number of Colonies (E. coli (ATCC BAA 1427) [4]; [8]): 0
- Number of Colonies (E. coli (ATCC BAA 1427) [4]; [9]): no colonies
- CFU/mL (E. coli (ATCC BAA 1427) [4]; [10]): 0 CFU/mL
- Number of Colonies [5, 8]: 0
- Number of Colonies [5, 9]: no colonies
- CFU/mL [5, 10]: 0 CFU/mL
- Number of Colonies (S. aureus (ATCC 6538) [6]; [8]): 0
- Number of Colonies (S. aureus (ATCC 6538) [6]; [9]): no colonies
- CFU/mL (S. aureus (ATCC 6538) [6]; [10]): 0 CFU/mL

Compound: Benzalkonium chloride
- Average Growth Inhibition (%) (E. coli (ATCC BAA 1427) [1]; [11]): 3%
- Average Growth Inhibition (%) (E. coli (ATCC BAA 1427) [1]; [12]): 5%
- Average Growth Inhibition (%) (E. coli (ATCC BAA 1427) [1]; [13]): 6%
- Average Growth Inhibition (%) (E. coli (ATCC BAA 1427) [1]; [14]): 7%
- Average Growth Inhibition (%) (E. coli (ATCC BAA 1427) [1]; [15]): 18%
- Average Growth Inhibition (%) (E. coli (ATCC BAA 1427) [1]; [16]): 100%
- Average Growth Inhibition (%) (E. coli (ATCC BAA 1427) [1]; [17]): 100%
- Average Growth Inhibition (%) (E. coli (ATCC BAA 1427) [1]; [18]): 100%
- MIC that inhibited greater than 90% growth (E. coli (ATCC BAA 1427) [1]; [19]): 15 µg/mL
- Average Growth Inhibition (%) [2, 11]: 4%
- Average Growth Inhibition (%) [2, 12]: 5%
- Average Growth Inhibition (%) [2, 13]: 7%
- Average Growth Inhibition (%) [2, 14]: 7%
- Average Growth Inhibition (%) [2, 15]: 8%
- Average Growth Inhibition (%) [2, 16]: 8%
- Average Growth Inhibition (%) [2, 17]: 28%
- Average Growth Inhibition (%) [2, 18]: 100%
- MIC that inhibited greater than 90% growth [2, 19]: 60 µg/mL
- Average Growth Inhibition (%) (S. aureus (ATCC 6538) [3]; [11]): −30%
- Average Growth Inhibition (%) (S. aureus (ATCC 6538) [3]; [12]): 100%
- Average Growth Inhibition (%) (S. aureus (ATCC 6538) [3]; [13]): 101%
- Average Growth Inhibition (%) (S. aureus (ATCC 6538) [3]; [14]): 101%
- Average Growth Inhibition (%) (S. aureus (ATCC 6538) [3]; [15]): 99%
- Average Growth Inhibition (%) (S. aureus (ATCC 6538) [3]; [16]): 101%
- Average Growth Inhibition (%) (S. aureus (ATCC 6538) [3]; [17]): 101%
- Average Growth Inhibition (%) (S. aureus (ATCC 6538) [3]; [18]): 98%
- MIC that inhibited greater than 90% growth (S. aureus (ATCC 6538) [3]; [19]): 0.9375 µg/mL
- MIC of BZK Alone (E. coli; alone): 15 µg/mL
- MIC of BZK in Presence of CHG (E. coli; in presence of CHG): 0.2344 µg/mL
- MIC of BZK Alone (S. aureus; alone): 0.9375 µg/mL
- MIC of BZK in Presence of CHG (S. aureus; in presence of CHG): 0.469 µg/mL
- MIC of BZK Alone (P. aeruginosa; alone): 60 µg/mL
- MIC of BZK in Presence of CHG (P. aeruginosa; in presence of CHG): 7.5 µg/mL
- CFU/mL (E. coli (ATCC BAA 1427) [4]; concentration 0.46875 μg/mL): Lawn
- Number of Colonies (E. coli (ATCC BAA 1427) [4]; [20]): Lawn (‘Lawn’ indicates too many colonies to accurately count (e.g., greater than 250 colonies on an agar plate))
- CFU/mL (E. coli (ATCC BAA 1427) [4]; concentration 0.9375 μg/mL): Lawn
- Number of Colonies (E. coli (ATCC BAA 1427) [4]; [21]): Lawn (‘Lawn’ indicates too many colonies to accurately count (e.g., greater than 250 colonies on an agar plate))
- CFU/mL (E. coli (ATCC BAA 1427) [4]; concentration 1.875 μg/mL): Lawn
- Number of Colonies (E. coli (ATCC BAA 1427) [4]; [22]): Lawn (‘Lawn’ indicates too many colonies to accurately count (e.g., greater than 250 colonies on an agar plate))
- CFU/mL (E. coli (ATCC BAA 1427) [4]; concentration 3.75 μg/mL): Lawn
- Number of Colonies (E. coli (ATCC BAA 1427) [4]; [23]): Lawn (‘Lawn’ indicates too many colonies to accurately count (e.g., greater than 250 colonies on an agar plate))
- CFU/mL (E. coli (ATCC BAA 1427) [4]; concentration 7.5 μg/mL): Lawn
- Number of Colonies (E. coli (ATCC BAA 1427) [4]; [24]): Lawn (‘Lawn’ indicates too many colonies to accurately count (e.g., greater than 250 colonies on an agar plate))
- CFU/mL (E. coli (ATCC BAA 1427) [4]; concentration 15 μg/mL): 0 CFU/mL
- Number of Colonies (E. coli (ATCC BAA 1427) [4]; [25]): 0
- CFU/mL (E. coli (ATCC BAA 1427) [4]; concentration 30 μg/mL): 0 CFU/mL
- Number of Colonies (E. coli (ATCC BAA 1427) [4]; [26]): 0
- CFU/mL (E. coli (ATCC BAA 1427) [4]; concentration 60 μg/mL): 0 CFU/mL
- Number of Colonies (E. coli (ATCC BAA 1427) [4]; [27]): 0
- MBC (defined as having less than 500 CFU/mL) (E. coli (ATCC BAA 1427) [4]; [19]): 15 µg/mL
- CFU/mL ([5]; concentration 0.46875 μg/mL): Lawn
- Number of Colonies [5, 20]: Lawn (‘Lawn’ indicates too many colonies to accurately count (e.g., greater than 250 colonies on an agar plate))
- CFU/mL ([5]; concentration 0.9375 μg/mL): Lawn
- Number of Colonies [5, 21]: Lawn (‘Lawn’ indicates too many colonies to accurately count (e.g., greater than 250 colonies on an agar plate))
- CFU/mL ([5]; concentration 1.875 μg/mL): Lawn
- Number of Colonies [5, 22]: Lawn (‘Lawn’ indicates too many colonies to accurately count (e.g., greater than 250 colonies on an agar plate))
- CFU/mL ([5]; concentration 3.75 μg/mL): Lawn
- Number of Colonies [5, 23]: Lawn (‘Lawn’ indicates too many colonies to accurately count (e.g., greater than 250 colonies on an agar plate))
- CFU/mL ([5]; concentration 7.5 μg/mL): Lawn
- Number of Colonies [5, 24]: Lawn (‘Lawn’ indicates too many colonies to accurately count (e.g., greater than 250 colonies on an agar plate))
- CFU/mL ([5]; concentration 15 μg/mL): Lawn
- Number of Colonies [5, 25]: Lawn (‘Lawn’ indicates too many colonies to accurately count (e.g., greater than 250 colonies on an agar plate))
- CFU/mL ([5]; concentration 30 μg/mL): Lawn
- Number of Colonies [5, 26]: Lawn (‘Lawn’ indicates too many colonies to accurately count (e.g., greater than 250 colonies on an agar plate))
- CFU/mL ([5]; concentration 60 μg/mL): 166.67 CFU/mL
- Number of Colonies [5, 27]: 1.6667
- MBC (defined as having less than 500 CFU/mL) [5, 19]: 60 µg/mL
- CFU/mL (S. aureus (ATCC 6538) [6]; concentration 0.46875 μg/mL): Lawn
- Number of Colonies (S. aureus (ATCC 6538) [6]; [20]): Lawn (‘Lawn’ indicates too many colonies to accurately count (e.g., greater than 250 colonies on an agar plate))
- CFU/mL (S. aureus (ATCC 6538) [6]; concentration 0.9375 μg/mL): Lawn
- Number of Colonies (S. aureus (ATCC 6538) [6]; [21]): Lawn (‘Lawn’ indicates too many colonies to accurately count (e.g., greater than 250 colonies on an agar plate))
- CFU/mL (S. aureus (ATCC 6538) [6]; concentration 1.875 μg/mL): 1133.3 CFU/mL
- Number of Colonies (S. aureus (ATCC 6538) [6]; [22]): 11.333
- CFU/mL (S. aureus (ATCC 6538) [6]; concentration 3.75 μg/mL): 1500 CFU/mL
- Number of Colonies (S. aureus (ATCC 6538) [6]; [23]): 15
- CFU/mL (S. aureus (ATCC 6538) [6]; concentration 7.5 μg/mL): 33.333 CFU/mL
- Number of Colonies (S. aureus (ATCC 6538) [6]; [24]): 0.333
- CFU/mL (S. aureus (ATCC 6538) [6]; concentration 15 μg/mL): 0 CFU/mL
- Number of Colonies (S. aureus (ATCC 6538) [6]; [25]): 0
- CFU/mL (S. aureus (ATCC 6538) [6]; concentration 30 μg/mL): 0 CFU/mL
- Number of Colonies (S. aureus (ATCC 6538) [6]; [26]): 0
- CFU/mL (S. aureus (ATCC 6538) [6]; concentration 60 μg/mL): 0 CFU/mL
- Number of Colonies (S. aureus (ATCC 6538) [6]; [27]): 0
- MBC (defined as having less than 500 CFU/mL) (S. aureus (ATCC 6538) [6]; [19]): 7.5 µg/mL
